From patent US7888357B2, “Anti-inflammatory and protein kinase inhibitor compositions and related methods for downregulation of detrimental cellular responses and inhibition of cell death” (Northwestern University, priority 2001, dated 2011)

Key:
p38 MAPK = target: T1, p38 MAPK (Xenopus laevis, UniProt P47812); assay: Reconstituted enzyme assay, p38 MAPK; type: biochemical; conditions: γ-[32P]-ATP, synthetic peptide substrate
T1 construct: purchased Upstate Biotechnology
Method: [table] […] The rationale for using BV-2 cells in high throughput screening was the paucity of well-characterized human microglial cell lines, and the relevant activation responses and signaling pathways reflect those seen in human and rodent primary microglial cultures. Compounds were tested for their effects on NO accumulation in conditioned media of LPS-stimulated BV-2 cells by measurement of nitrite production by the Griess assay as a read-out for iNOS activity, as described previously. Stock solutions of compounds were prepared in dimethylsulfoxide (DMSO) or in water. When stock solutions were prepared in DMSO, control wells contained the same final concentration of DMSO as the compound-containing wells. […] Solutions of compounds for cell treatments were diluted to a 10× final concentration by dilution of stock solutions in αMEM media. […] Reconstituted enzyme assays were done as described s. The sources of protein kinases were: bovine heart PKA from Promega, rat brain PKC from Calbiochem, rat CaMKII from New England Biolabs, chicken gizzard MLCK prepared as described, and a p38 MAP kinase kit containing recombinant Xenopus p38-MAPK and its human substrate from Upstate Biotechnology. […]

[1] = target: T2, myosin light chain kinase (MLCK) (Gallus gallus, UniProt P11799); assay: Reconstituted enzyme assay, MLCK; type: biochemical, chicken; conditions: γ-[32P]-ATP, synthetic peptide substrate; mean ± SEM; read-out: IC50 MLCK
T2 construct: chicken gizzard MLCK prepared as described; from tissue; host or cells: chicken gizzard

[2] = target: death associated protein kinase (DAPK) (Homo sapiens, UniProt P53355); assay: Enzyme assay, DAPK; type: biochemical; conditions: read-out: DAPK IC50
BV-2 microglial cells = assay: Cell-based screen for inhibition of LPS-stimulated NO release (Griess assay); design: species or system murine; conditions: LPS-stimulated BV-2 cells, 24 hr, nitrite in conditioned media
Method: FIG. 1. Cell-based screen for inhibition of LPS-stimulated NO release. […] Inhibition is expressed as percent control, where the control is the NO accumulation from cells stimulated with LPS alone.
The rationale for using BV-2 cells in high throughput screening was the paucity of well-characterized human microglial cell lines, and the relevant activation responses and signaling pathways reflect those seen in human and rodent primary microglial cultures. Compounds were tested for their effects on NO accumulation in conditioned media of LPS-stimulated BV-2 cells by measurement of nitrite production by the Griess assay as a read-out for iNOS activity, as described previously. Stock solutions of compounds were prepared in dimethylsulfoxide (DMSO) or in water. When stock solutions were prepared in DMSO, control wells contained the same final concentration of DMSO as the compound-containing wells. […] Solutions of compounds for cell treatments were diluted to a 10× final concentration by dilution of stock solutions in αMEM media. The commercially available drugs tested were: compound 5 (KN93 from Alexis); compound 6 (pyrrolidinedithiocarbamate or PDTC from Sigma), compound 7 (SB203580 from Alexis Corporation), compound 8 (PD98059 from Alexis Corporation), and compound 9 (UO126 from Cell Signaling). […] Respectively, Western blots of cell lysates were done with the following antibodies: monoclonal anti-iNOS (1:1000 dilution, Transduction Labs); polyclonal anti-rat IL-1β (1:1000 dilution, R&D Systems, Inc.); monoclonal anti-glial fibrillary acidic protein (GFAP) (1:[…] dilution, Sigma); polyclonal anti-rat alioE (1:15,000 dilution) prepared as described; polyclonal anti-COX-2 (1:500 dilution) and monoclonal anti-phosphoATF2 (1:1000 dilution) from Santa Cruz Biotechnology, polyclonal anti-phosphoCREB (1:1000 dilution), and polyclonal anti-phosphop38 MAPK (1:1000 dilution). Reconstituted enzyme assays were done as described s. The sources of protein kinases were: bovine heart PKA from Promega, rat brain PKC from Calbiochem, rat CaMKII from New England Biolabs, chicken gizzard MLCK prepared as described, and a p38 MAP kinase kit containing recombinant Xenopus p38-MAPK and its human substrate from Upstate Biotechnology. The catalytic domains of these protein kinases retain a high level of amino acid sequence identity across mammalian species, consistent with the lack of documented major differences across species for the in vitro catalytic activity of a given kinase.
FIG. 4. Cell-based screen for functional effects of synthetic compounds on LPS-stimulated NO release from BV-2 cells. BV-2 cells were incubated for 24 hr with LPS (500 ng/ml) in the presence of increasing concentrations of: A) MW01-070C; B) MW01-026Z; C) MW01-118Z; D) MW01-119Z; E) MW01-051Z; F) MW01-160Z; G) MW01-196A; H) MW01-024Z; I) SB203580; J) PDTC; K) U0126; L) PD98059. The nitrite levels in conditioned media were determined. Inhibition is expressed as percentage of control values, where the control is the nitrite level in cells stimulated with LPS alone.
Compounds were tested for their effects on NO production by LPS-stimulated BV-2 cells as previously described [Mirzoeva, S., Koppal, T., Petrova, T. V., Lukas, T. J., Watterson, D. M., and Van Eldik, L. J. (1999) Brain Res. 844, 126-134]. The levels of nitrite, a stable NO metabolite, in conditioned media were determined by the Griess assay as previously described [Hu, J., Castets, F., Guevara, J. L., and Van Eldik, L. J. (1996) J. Biol. Chem. 271, 2543-2547]. Stock solutions of compounds were prepared in DMSO or in water. When stock solutions were prepared in DMSO, control wells contained the same final concentration of DMSO as the compound-containing wells. Solutions of compounds for cell treatments were diluted to a 10× final concentration by dilution of stock solutions of drugs in αMEM media.

Chain of death associated protein kinase (DAPK) (P53355 whole entry, species assumed): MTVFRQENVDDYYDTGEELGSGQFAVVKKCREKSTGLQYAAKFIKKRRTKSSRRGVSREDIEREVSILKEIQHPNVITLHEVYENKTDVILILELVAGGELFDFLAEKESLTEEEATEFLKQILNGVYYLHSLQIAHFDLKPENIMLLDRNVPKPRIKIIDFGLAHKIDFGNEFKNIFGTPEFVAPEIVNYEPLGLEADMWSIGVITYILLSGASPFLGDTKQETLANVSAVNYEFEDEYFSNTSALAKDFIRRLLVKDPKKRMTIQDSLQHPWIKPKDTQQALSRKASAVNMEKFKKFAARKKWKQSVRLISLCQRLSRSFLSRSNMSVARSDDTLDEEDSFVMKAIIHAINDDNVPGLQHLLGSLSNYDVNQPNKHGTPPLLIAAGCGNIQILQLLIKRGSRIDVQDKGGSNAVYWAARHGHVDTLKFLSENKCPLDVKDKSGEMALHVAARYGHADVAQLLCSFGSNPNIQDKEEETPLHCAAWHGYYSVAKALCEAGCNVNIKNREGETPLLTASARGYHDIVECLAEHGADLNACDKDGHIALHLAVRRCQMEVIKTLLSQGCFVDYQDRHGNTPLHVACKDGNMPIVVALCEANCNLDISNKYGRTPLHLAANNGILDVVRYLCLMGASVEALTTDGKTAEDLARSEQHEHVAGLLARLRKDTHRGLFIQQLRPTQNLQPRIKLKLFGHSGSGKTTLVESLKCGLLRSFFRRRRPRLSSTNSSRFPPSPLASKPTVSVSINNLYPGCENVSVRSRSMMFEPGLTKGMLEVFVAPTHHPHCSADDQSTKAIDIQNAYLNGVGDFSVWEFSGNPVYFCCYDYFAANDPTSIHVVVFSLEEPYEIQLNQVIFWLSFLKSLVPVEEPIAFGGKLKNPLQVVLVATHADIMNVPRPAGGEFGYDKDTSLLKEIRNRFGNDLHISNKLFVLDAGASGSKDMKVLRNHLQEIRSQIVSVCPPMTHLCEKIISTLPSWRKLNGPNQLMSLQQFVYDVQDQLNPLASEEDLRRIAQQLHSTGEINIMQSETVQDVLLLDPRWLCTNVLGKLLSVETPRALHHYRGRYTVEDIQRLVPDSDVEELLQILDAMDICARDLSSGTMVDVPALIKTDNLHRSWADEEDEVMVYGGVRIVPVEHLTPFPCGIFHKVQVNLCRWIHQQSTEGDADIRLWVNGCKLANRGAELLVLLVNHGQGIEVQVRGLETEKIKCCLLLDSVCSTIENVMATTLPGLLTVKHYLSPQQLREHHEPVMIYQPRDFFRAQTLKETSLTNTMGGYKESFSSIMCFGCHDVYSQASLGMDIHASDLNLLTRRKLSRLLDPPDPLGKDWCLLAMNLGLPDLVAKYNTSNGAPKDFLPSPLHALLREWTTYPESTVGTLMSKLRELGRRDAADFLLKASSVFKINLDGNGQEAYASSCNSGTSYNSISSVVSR
T1 sequence (P47812 whole entry): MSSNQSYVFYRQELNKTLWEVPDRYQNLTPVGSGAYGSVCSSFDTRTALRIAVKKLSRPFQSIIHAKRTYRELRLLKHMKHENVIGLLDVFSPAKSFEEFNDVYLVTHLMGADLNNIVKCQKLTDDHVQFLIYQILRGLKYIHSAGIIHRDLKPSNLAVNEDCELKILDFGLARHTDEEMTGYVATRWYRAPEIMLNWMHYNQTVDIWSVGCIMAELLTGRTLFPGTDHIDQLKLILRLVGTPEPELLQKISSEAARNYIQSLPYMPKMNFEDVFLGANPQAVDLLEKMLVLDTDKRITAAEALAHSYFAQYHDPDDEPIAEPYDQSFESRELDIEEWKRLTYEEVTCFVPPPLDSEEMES
T2 sequence (P11799 935-1906): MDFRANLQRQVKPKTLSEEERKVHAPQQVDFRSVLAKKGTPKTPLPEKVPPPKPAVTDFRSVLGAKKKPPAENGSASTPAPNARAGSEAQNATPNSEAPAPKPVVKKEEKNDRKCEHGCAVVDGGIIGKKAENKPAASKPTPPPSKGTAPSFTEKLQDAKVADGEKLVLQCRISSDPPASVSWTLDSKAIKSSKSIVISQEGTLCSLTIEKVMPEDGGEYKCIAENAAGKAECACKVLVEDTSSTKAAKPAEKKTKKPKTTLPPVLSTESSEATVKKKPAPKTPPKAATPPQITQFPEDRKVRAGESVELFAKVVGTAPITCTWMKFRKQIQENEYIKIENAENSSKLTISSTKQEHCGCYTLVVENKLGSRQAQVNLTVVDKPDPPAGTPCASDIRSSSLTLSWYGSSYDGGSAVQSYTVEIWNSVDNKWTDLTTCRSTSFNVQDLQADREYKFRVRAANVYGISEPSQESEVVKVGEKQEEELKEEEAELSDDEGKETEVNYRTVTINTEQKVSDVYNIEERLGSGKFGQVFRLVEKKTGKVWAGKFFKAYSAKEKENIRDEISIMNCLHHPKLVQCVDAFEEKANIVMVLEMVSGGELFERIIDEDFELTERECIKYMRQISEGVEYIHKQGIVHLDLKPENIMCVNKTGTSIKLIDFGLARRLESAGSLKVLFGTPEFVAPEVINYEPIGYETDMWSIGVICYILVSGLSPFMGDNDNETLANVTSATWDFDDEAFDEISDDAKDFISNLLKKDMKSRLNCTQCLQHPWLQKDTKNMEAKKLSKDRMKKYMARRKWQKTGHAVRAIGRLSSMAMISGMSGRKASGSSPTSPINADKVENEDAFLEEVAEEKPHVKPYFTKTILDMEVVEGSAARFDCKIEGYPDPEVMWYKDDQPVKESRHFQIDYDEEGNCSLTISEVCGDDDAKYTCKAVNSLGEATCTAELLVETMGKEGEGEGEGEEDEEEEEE

N=c1cc2c(nn1CCCCCCCCCCC(=O)N1CCN(c3ncccn3)CC1)-c1ccccc1CC2 [MW01-070C]
IC50 (p38 MAPK): > 100 µM | IC50 [1]: > 100 µM | IC50 [2]: 80 to 100 µM | inhibition of NO accumulation by activated glia (BV-2 microglial cells): more effective | inhibition of NO accumulation by activated glia (BV-2 microglial cells; listed as 1): most active compound
